pIC50: −log10 of the molar value. Where two headings read alike, the source gives them in different places.
How the values were obtained:
[1] = system: agonist-dependent nuclear export of HDAC5; experiment: HDAC5 nuclear export assay (GFP-HDAC5, Cellomics imaging); type: cell-based; settings: Rattus norvegicus, Ventricular myocyte, 2 h, read-out: Inhibitory Activity HDAC
Description: Compounds are evaluated in the HDAC5 nuclear export assay, a 384-well plate-based assay that enables high throughput screening (HTS) to identify small molecules that block agonist-dependent nuclear export of HDAC5. […] Neonatal rat ventricular myocytes (NRVMs) are infected with GFP-HDAC5 encoding virus and plated on gelatin-coated 384-well dishes. […] Following two hours of stimulation, cells are fixed and GFP-HDAC5 localization quantified using the Cellomics system, which provides a read-out of relative fluorescence intensity in the cytoplasmic versus nuclear compartment.

protein kinase D2 (PKD2) = molecular target: T1, protein kinase D2 (PKD2) (Homo sapiens, UniProt Q9BZL6); experiment: PKD2 TR-FRET (LANCE) kinase assay; type: biochemical; settings: full length wild-type enzyme, 20 μM ATP, syntide-2 substrate; read-out: Inhibitory Activity PKD2
T1 construct: This assay is performed with full length wild-type enzyme purchase from Invitrogen; purchased Invitrogen
T1 sequence (Q9BZL6 1-878): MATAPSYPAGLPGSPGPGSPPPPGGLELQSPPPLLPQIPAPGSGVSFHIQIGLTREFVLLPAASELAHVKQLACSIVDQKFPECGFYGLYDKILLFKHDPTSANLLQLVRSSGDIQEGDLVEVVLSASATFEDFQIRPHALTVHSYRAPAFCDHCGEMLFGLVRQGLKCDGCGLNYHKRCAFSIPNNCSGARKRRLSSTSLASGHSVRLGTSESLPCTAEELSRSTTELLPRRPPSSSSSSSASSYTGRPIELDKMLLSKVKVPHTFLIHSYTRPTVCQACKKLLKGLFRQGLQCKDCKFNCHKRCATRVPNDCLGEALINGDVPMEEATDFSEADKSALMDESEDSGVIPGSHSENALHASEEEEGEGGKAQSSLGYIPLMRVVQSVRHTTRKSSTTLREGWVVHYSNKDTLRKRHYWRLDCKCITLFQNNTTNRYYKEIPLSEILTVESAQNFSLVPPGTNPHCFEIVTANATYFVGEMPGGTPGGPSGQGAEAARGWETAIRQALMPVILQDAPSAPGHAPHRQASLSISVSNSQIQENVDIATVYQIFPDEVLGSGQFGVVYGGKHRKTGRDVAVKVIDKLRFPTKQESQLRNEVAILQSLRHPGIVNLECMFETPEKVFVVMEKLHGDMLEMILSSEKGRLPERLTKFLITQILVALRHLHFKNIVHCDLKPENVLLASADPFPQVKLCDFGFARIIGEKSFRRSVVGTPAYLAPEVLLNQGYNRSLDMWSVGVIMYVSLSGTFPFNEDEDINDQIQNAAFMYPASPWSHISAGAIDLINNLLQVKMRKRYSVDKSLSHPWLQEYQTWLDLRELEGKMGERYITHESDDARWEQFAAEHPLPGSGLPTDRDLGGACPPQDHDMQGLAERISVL
Description: (§1) The assay to measure protein kinase D2 (PKD2) activity is a time-resolved fluorescence resonance transfer (TR-FRET) assay using PerkinElmer's LANCE™ technology. In this case, a biotinylated syntide-2 peptide is used as the substrate in this reaction. Phosphorylation of the syntide-2 substrate is detected by a specific antibody that recognizes the phosphorylated peptide. A second fluorophore, APC, is conjugated to streptavidin that binds the biotinylated syntide-2 peptide. […] Therefore, when the europium labeled secondary antibody binds on the phosphorylated peptide, it is brought into close contact with the APC and excites this fluorophore.
(§2) This assay is performed with full length wild-type enzyme purchase from Invitrogen. The reaction buffer consists of 35 mM Tris-HCl pH7.5, 5 mM MgCl2, 0.02% Tween-20, 20 μM ATP, 1 mM DTT and 0.2 μg/mL PKD2 enzyme. The enzyme reaction is initiated by the addition of 2 μM syntide-2 peptide substrate and the reaction carried out for 50 minutes at room temperature. The reaction is stopped by a stop/detection Buffer consisting of 50 mM EDTA, 0.18 mg/mL rabbit polyclonal anti-phospho Syntide-2 antibody, 0.5 nM europium labeled anti-rabbit IgG and 10 nM streptavidin conjugated APC. After a one hour incubation with the stop/detection buffer, the reaction is read on an Envision 2100 Reader using a LANCE™ Eu/APC dual protocol. […] IC50 values are calculated using an Activity Base (IDBS) software program.

protein kinase D1 (PKD1) = molecular target: T2, protein kinase D1 (PKD1) (Homo sapiens, UniProt Q15139); experiment: PKD1 TR-FRET (LANCE) kinase assay; type: biochemical; settings: full length wild-type enzyme, 20 μM ATP, syntide-2 substrate; read-out: Inhibitory Activity PKD1
T2 construct: This assay is performed with full length wild-type enzyme that is expressed and purified from Sf9 insect cells; made in house; host or cells: Sf9 insect cells
T2 sequence (Q15139 1-912): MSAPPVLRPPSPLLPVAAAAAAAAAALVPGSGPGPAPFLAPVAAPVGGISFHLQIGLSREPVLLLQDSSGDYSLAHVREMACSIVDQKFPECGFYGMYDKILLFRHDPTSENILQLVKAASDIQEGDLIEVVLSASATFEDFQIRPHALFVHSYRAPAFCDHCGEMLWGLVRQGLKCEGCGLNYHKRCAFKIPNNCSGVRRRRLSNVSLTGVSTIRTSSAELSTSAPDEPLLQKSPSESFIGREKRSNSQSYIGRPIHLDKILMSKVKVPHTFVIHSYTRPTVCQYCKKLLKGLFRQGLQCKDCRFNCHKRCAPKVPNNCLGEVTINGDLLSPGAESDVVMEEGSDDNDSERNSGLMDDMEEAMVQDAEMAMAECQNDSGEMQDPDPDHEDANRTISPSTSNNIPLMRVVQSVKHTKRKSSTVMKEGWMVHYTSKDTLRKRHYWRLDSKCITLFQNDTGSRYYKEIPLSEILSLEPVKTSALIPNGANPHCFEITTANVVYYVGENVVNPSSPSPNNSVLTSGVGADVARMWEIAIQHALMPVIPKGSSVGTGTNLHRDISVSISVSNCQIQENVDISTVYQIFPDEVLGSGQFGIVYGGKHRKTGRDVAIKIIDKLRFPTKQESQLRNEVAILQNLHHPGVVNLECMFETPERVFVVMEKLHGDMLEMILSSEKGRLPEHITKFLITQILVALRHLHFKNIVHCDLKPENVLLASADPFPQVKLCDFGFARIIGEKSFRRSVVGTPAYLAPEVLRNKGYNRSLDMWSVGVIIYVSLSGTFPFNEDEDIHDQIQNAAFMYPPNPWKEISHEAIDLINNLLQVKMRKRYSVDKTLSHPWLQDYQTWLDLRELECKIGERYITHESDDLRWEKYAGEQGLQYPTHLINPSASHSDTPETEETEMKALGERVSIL
Description: as §1, with “D1 (PKD1)” for “D2 (PKD2)”
as §2, with “that is expressed and purified” for “purchase”, “Sf9 insect cells.” for “Invitrogen.”, “PKD1” for “PKD2”, “APC.” for “APC. After a one hour incubation with the stop/detection buffer, the reaction is read on an Envision 2100 Reader using a LANCE™ Eu/APC dual protocol.”

protein kinase D3 (PKD3) = molecular target: T3, protein kinase D3 (PKD3) (Homo sapiens, UniProt O94806); experiment: PKD3 TR-FRET (LANCE) kinase assay; type: biochemical; settings: full length wild-type enzyme, 20 μM ATP, syntide-2 substrate; read-out: Inhibitory Activity PKD3
T3 construct: This assay is performed with full length wild-type enzyme that is purchased from Invitrogen; purchased Invitrogen
T3 sequence (O94806 1-890): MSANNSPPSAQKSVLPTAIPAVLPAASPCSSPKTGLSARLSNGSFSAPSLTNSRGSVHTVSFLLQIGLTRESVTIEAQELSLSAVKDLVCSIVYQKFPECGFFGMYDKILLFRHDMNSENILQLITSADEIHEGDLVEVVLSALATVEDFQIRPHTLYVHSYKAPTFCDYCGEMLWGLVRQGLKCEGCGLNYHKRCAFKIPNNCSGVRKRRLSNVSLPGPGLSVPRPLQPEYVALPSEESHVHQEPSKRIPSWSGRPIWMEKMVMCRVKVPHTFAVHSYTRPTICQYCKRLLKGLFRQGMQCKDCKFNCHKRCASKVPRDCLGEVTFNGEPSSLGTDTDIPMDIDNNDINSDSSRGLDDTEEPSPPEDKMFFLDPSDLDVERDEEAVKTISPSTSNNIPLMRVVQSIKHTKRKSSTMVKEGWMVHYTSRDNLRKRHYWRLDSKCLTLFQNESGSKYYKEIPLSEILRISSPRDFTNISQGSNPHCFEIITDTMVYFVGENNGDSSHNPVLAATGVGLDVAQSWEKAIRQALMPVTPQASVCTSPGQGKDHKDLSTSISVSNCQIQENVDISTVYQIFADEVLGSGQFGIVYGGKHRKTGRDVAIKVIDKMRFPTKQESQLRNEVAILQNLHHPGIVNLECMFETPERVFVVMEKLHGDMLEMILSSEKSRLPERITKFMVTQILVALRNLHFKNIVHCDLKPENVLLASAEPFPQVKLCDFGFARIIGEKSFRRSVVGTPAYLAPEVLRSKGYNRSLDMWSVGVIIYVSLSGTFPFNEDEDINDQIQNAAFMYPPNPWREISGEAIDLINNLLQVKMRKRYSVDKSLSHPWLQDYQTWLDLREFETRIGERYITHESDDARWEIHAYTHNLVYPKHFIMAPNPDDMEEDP
Description: as §1, with “D3 (PKD3)” for “D2 (PKD2)”
as §2, with “that is purchased” for “purchase”, “PKD3” for “PKD2”, “buffer” for “Buffer”

Structure (SMILES)	pIC50 ([1]; neonatal rat ventricular myocytes, PGF2α stimulation, two hours)	pIC50 (protein kinase D2 (PKD2))	pIC50 (protein kinase D1 (PKD1))	pIC50 [1]	pIC50 (protein kinase D3 (PKD3))
Cn1ccc(Nc2cc(-c3cc(C#N)cc(N4CCNCC4)n3)ccn2)n1 [2′-(1-Methyl-1H-pyrazol-3-ylamino)-6-piperazin-1-yl-[2,4′]bipyridinyl-4-carbonitrile]	< 6.00	7.12	8.10	–	–
C[C@@H]1CN(c2cc(C(N)=O)cc(-c3ccnc(NC4CCCCC4)c3)n2)CCN1 [2′-Cyclohexylamino-6-((R)-3-methylpiperazin-1-yl)-[2,4′]bipyridinyl-4-carboxylic acid amide]	–	7.22	8.22	6.17	–
CC(C)Nc1cc(-c2cc(-c3cn[nH]c3)cc(N3CCNCC3)n2)ccn1 [iso-Propyl-[6-piperazin-1-yl-4-(1H-pyrazol-4-yl)-[2,4′]bipyridinyl-2′-yl]-amine]	–	8.52	–	7.04	> 9.00
